≈ marks a conversion by molar mass, not a printed value.
Experiments:
Format in all cases: cell-based
S. aureus USA 600 = assay: broth microdilution MIC assay, S. aureus USA600; settings: Staphylococcus aureus; S. aureus USA600 (MRSA); read-out: MIC, S. aureus USA600
In short: (§1)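 MIC is the lowest compound concentration with no visible growth after 16-20 h at 37° C. Testing followed CLSI microdilution, with 2-fold compound series in Mueller-Hinton broth supplemented with divalent cations and a starting inoculum of 5×10^5 CFU/mL.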

[1] = test system: P. aeruginosa ΔmexAB-OprM (an efflux pump knockout); assay: broth microdilution MIC assay, P. aeruginosa ΔmexAB-OprM; settings: Pseudomonas aeruginosa, read-out: MIC, P. aeruginosa ΔmexAB-OprM
In short: as §1

[2] = test system: E. coli ATCC 25922 (wild-type/QC strain); assay: broth microdilution MIC assay, E. coli 25922; settings: Escherichia coli, ATCC25922; read-out: MIC, E. coli 25922
In short: as §1

[3] = test system: P. aeruginosa 35151 (hyper-permeable strain); assay: broth microdilution MIC assay, P. aeruginosa 35151; settings: Pseudomonas aeruginosa, read-out: MIC, P. aeruginosa 35151
In short: as §1

S. aureus USA 300 = assay: broth microdilution MIC assay, S. aureus USA300; settings: Staphylococcus aureus; S. aureus USA300 (MRSA); read-out: MIC, S. aureus USA300
In short: as §1

[4] = test system: P. aeruginosa ATCC 27853 (wild-type/QC strain); assay: broth microdilution MIC assay, P. aeruginosa 27853; settings: Pseudomonas aeruginosa, ATCC27853; read-out: MIC, P. aeruginosa 27853
In short: as §1

[5] = test system: S. aureus ATCC 33591 (methicillin-resistant); assay: broth microdilution MIC assay, S. aureus 33591; settings: Staphylococcus aureus, ATCC33591; S. aureus 33591, methicillin-resistant; read-out: MIC, S. aureus 33591
In short: as §1

P. aeruginosa Paeβ-17 = assay: broth microdilution MIC assay, P. aeruginosa Paeβ-17; settings: Pseudomonas aeruginosa, read-out: MIC, P. aeruginosa Paeβ-17
In short: as §1

[6] = test system: Methicillin Resistant S. aureus (MRSA) clinical isolates; assay: expanded MIC profiling, MRSA clinical isolates; settings: Staphylococcus aureus
Experimental: (§2) To evaluate the activity of selected example compounds against clinical isolates of target species, standard cell-based broth microdilution MIC assays were employed. A panel of 20 clinical isolates of P. aeruginosa and 20 clinical isolates of Methicillin Resistant S. aureus (MRSA) from Lankenau Medical Center (Wynnewood, Pa.) were used. In the set of P. aeruginosa isolates, the compounds were also tested in combination with a β-lactamase inhibitor (taniborbactam), to evaluate the potential benefit of inhibiting β-lactamase enzymes. The assay was conducted in Cation Adjusted Mueller Hinton Broth (CAMHB, BD #212322, BD Diagnostic Systems, Sparks, Md.). Bacteria strains were grown for 3-5 hours in CAMHB. Compounds were added to a microtiter plate in 2-fold serial dilutions in CAMHB. For plates receiving β-lactamase inhibitor, taniborbactam was added to obtain a final fixed concentration of 4 μg/mL. Once the test articles were added, the plates were inoculated according to CLSI broth microdilution method. After inoculation, the plates were incubated for 16-20 hours at 37° C. then the Minimal Inhibitory Concentration (MIC) of the test compound is determined visually. Values for concentration required to inhibit growth of […] (MIC50) and 90% (MIC90) of isolates were determined.

[7] = test system: P. aeruginosa clinical isolates; assay: expanded MIC profiling, P. aeruginosa clinical isolates; settings: Pseudomonas aeruginosa
Experimental: as §2

[8] = panel of S. aureus (MRSA) isolates of Table 5
[9] = panel of 20 P. aeruginosa clinical isolates

Work on `C[C@@H](O)[C@H]1C(=O)N2C(C(=O)O)=C(S[C@H]3C[C@@H](N[C@H]4CC[C@@H](N)C4)C3)[C@H](C)[C@H]12` [Example 76, (4R,5S,6S)-3-(((1R,3S)-3-(((1S,3R)-3-aminocyclopentyl)amino)cyclobutyl)thio)-6-((R)-1-hydroxyethyl)-4-methyl-7-oxo-1-azabicyclo[3.2.0]hept-2-ene-2-carboxylic acid] yielded an MIC (S. aureus USA 600) of 1 to 4 µg/mL (≈ 2.53 to 10.1 µM), an MIC [1] of 8 to 32 µg/mL (≈ 20.2 to 80.9 µM) and an MIC [2] of less than 1 µg/mL. It also gave an MIC [3] of less than 1 µg/mL, an MIC (S. aureus USA 300) of 1 to 4 µg/mL (≈ 2.53 to 10.1 µM) and an MIC [4] of 1 to 4 µg/mL (≈ 2.53 to 10.1 µM). For the same compound, the MIC [5] was 8 to 32 µg/mL (≈ 20.2 to 80.9 µM) and the MIC (P. aeruginosa Paeβ-17) was 1 to 4 µg/mL (≈ 2.53 to 10.1 µM).

With `C[C@@H](O)[C@H]1C(=O)N2C(C(=O)O)=C(S[C@H]3C[C@@H](N[C@@H]4CC[C@H](N)C4)C3)[C@H](C)[C@H]12` [Example 77, (4R,5S,6S)-3-(((1S,3S)-3-(((1R,3S)-3-aminocyclopentyl)amino)cyclobutyl)thio)-6-((R)-1-hydroxyethyl)-4-methyl-7-oxo-1-azabicyclo[3.2.0]hept-2-ene-2-carboxylic acid] the MIC (S. aureus USA 600) was 1 to 4 µg/mL (≈ 2.53 to 10.1 µM), the MIC [1] was 8 to 32 µg/mL (≈ 20.2 to 80.9 µM) and the MIC [2] was less than 1 µg/mL. For the same compound, the MIC [3] was less than 1 µg/mL, the MIC (S. aureus USA 300) was 1 to 4 µg/mL (≈ 2.53 to 10.1 µM) and the MIC [4] was 1 to 4 µg/mL (≈ 2.53 to 10.1 µM). It also gave an MIC [5] of 8 to 32 µg/mL (≈ 20.2 to 80.9 µM) and an MIC (P. aeruginosa Paeβ-17) of 1 to 4 µg/mL (≈ 2.53 to 10.1 µM).

`C[C@@H](O)[C@H]1C(=O)N2C(C(=O)O)=C(S[C@H]3C[C@@H](N[C@@H]4CC[C@@H](N)C4)C3)[C@H](C)[C@H]12` [Example 78, (4R,5S,6S)-3-(((1S,3S)-3-(((1R,3R)-3-aminocyclopentyl)amino)cyclobutyl)thio)-6-((R)-1-hydroxyethyl)-4-methyl-7-oxo-1-azabicyclo[3.2.0]hept-2-ene-2-carboxylic acid] was tested, and the MIC (S. aureus USA 600) was 1 to 4 µg/mL (≈ 2.53 to 10.1 µM), the MIC [1] was 8 to 32 µg/mL (≈ 20.2 to 80.9 µM) and the MIC [2] was less than 1 µg/mL. For the same compound, the MIC [3] was less than 1 µg/mL, the MIC (S. aureus USA 300) was 1 to 4 µg/mL (≈ 2.53 to 10.1 µM) and the MIC [4] was 1 to 4 µg/mL (≈ 2.53 to 10.1 µM). It also gave an MIC [5] of 8 to 32 µg/mL (≈ 20.2 to 80.9 µM) and an MIC (P. aeruginosa Paeβ-17) of 1 to 4 µg/mL (≈ 2.53 to 10.1 µM).

In the case of `C[C@@H](O)[C@H]1C(=O)N2C(C(=O)O)=C(S[C@H]3C[C@H](N[C@@H]4CC[C@H](NC(=N)N)C4)C3)[C@H](C)[C@H]12` [Example 79, (4R,5S,6S)-3-(((1R,3R)-3-(((1R,3S)-3-guanidinocyclopentyl)amino)cyclobutyl)thio)-6-((R)-1-hydroxyethyl)-4-methyl-7-oxo-1-azabicyclo[3.2.0]hept-2-ene-2-carboxylic acid], the MIC (S. aureus USA 600) is reported as 1 to 4 µg/mL (≈ 2.29 to 9.14 µM), the MIC [1] is reported as 8 to 32 µg/mL (≈ 18.3 to 73.1 µM) and the MIC [2] is reported as less than 1 µg/mL. It also gave an MIC [3] of less than 1 µg/mL, an MIC (S. aureus USA 300) of 1 to 4 µg/mL (≈ 2.29 to 9.14 µM) and an MIC [4] of 1 to 4 µg/mL (≈ 2.29 to 9.14 µM). It also gave an MIC [5] of 8 to 32 µg/mL (≈ 18.3 to 73.1 µM) and an MIC (P. aeruginosa Paeβ-17) of 1 to 4 µg/mL (≈ 2.29 to 9.14 µM).

`C[C@@H](O)[C@H]1C(=O)N2C(C(=O)O)=C(S[C@@H]3CN[C@H](C(=O)N(C)C)C3)[C@H](C)[C@H]12` [Meropenem, reference compound] was tested, and the MIC ([6]; ATCC 33591 / MRSA, S. aureus ATCC-33591) was 32 µg/mL, the MIC ([6]; MRSA, S. aureus clinical isolate LH-SA3) was 4 µg/mL and the MIC ([6]; MRSA, S. aureus clinical isolate LH-SA9) was 4 µg/mL. It also gave an MIC ([6]; MRSA, S. aureus clinical isolate LH-SA23) of 4 µg/mL, an MIC ([6]; MRSA, S. aureus clinical isolate LH-SA24) of 4 µg/mL and an MIC ([6]; MRSA, S. aureus clinical isolate LH-SA26) of 4 µg/mL. It also gave an MIC ([6]; MRSA, S. aureus clinical isolate LH-SA29) of 16 µg/mL, an MIC ([6]; MRSA, S. aureus clinical isolate LH-SA33) of 4 µg/mL and an MIC ([6]; MRSA, S. aureus clinical isolate LH-SA34) of 8 µg/mL. For the same compound, the MIC ([6]; MRSA, S. aureus clinical isolate LH-SA37) was 4 µg/mL, the MIC ([6]; MRSA, S. aureus clinical isolate LH-SA38) was 32 µg/mL and the MIC ([6]; MRSA, S. aureus clinical isolate LH-SA39) was 4 µg/mL. For the same compound, the MIC ([6]; MRSA, S. aureus clinical isolate LH-SA40) was 4 µg/mL, the MIC ([6]; MRSA, S. aureus clinical isolate LH-SA41) was 4 µg/mL and the MIC ([6]; MRSA, S. aureus clinical isolate LH-SA42) was 8 µg/mL. It also gave an MIC ([6]; MRSA, S. aureus clinical isolate LH-SA44) of 8 µg/mL, an MIC ([6]; MRSA, S. aureus clinical isolate LH-SA45) of 16 µg/mL and an MIC ([6]; MRSA, S. aureus clinical isolate LH-SA48) of 4 µg/mL. It also gave an MIC ([6]; MRSA, S. aureus clinical isolate LH-SA49) of 4 µg/mL, an MIC ([6]; MRSA, S. aureus clinical isolate LH-SA50) of 4 µg/mL and an MIC50 [6, 8] of 4 µg/mL. For the same compound, the MIC90 [6, 8] was 16 µg/mL, the MIC ([7]; P. aeruginosa clinical isolate Lankenau 11) was 1 µg/mL and the MIC ([7]; P. aeruginosa clinical isolate Lankenau 12) was 0.5 µg/mL. For the same compound, the MIC ([7]; P. aeruginosa clinical isolate Lankenau 13) was 1 µg/mL, the MIC ([7]; P. aeruginosa clinical isolate Lankenau 14) was 0.5 µg/mL and the MIC ([7]; P. aeruginosa clinical isolate Lankenau 15) was 1 µg/mL. For the same compound, the MIC ([7]; P. aeruginosa clinical isolate Lankenau 16) was 0.5 µg/mL, the MIC ([7]; P. aeruginosa clinical isolate Lankenau 17) was 1 µg/mL and the MIC ([7]; P. aeruginosa clinical isolate Lankenau 18) was 0.5 µg/mL. It also gave an MIC ([7]; P. aeruginosa clinical isolate Lankenau 19) of 1 µg/mL, an MIC ([7]; P. aeruginosa clinical isolate Lankenau 20) of 0.5 µg/mL and an MIC ([7]; P. aeruginosa clinical isolate Lankenau 21) of 1 µg/mL. For the same compound, the MIC ([7]; P. aeruginosa clinical isolate Lankenau 22) was 0.5 µg/mL, the MIC ([7]; P. aeruginosa clinical isolate Lankenau 23) was 0.5 µg/mL and the MIC ([7]; P. aeruginosa clinical isolate Lankenau 24) was 4 µg/mL. It also gave an MIC ([7]; P. aeruginosa clinical isolate Lankenau 25) of 0.5 µg/mL, an MIC ([7]; P. aeruginosa clinical isolate Lankenau 26) of less than 0.25 µg/mL and an MIC ([7]; P. aeruginosa clinical isolate Lankenau 27) of 0.5 µg/mL. The MIC ([7]; P. aeruginosa clinical isolate Lankenau 28) was 0.5 µg/mL, the MIC ([7]; P. aeruginosa clinical isolate Lankenau 29) was 0.5 µg/mL and the MIC ([7]; P. aeruginosa clinical isolate Lankenau 30) was 0.5 µg/mL. The MIC50 [7, 9] was 0.5 µg/mL and the MIC90 [7, 9] was 1 µg/mL.

Reference: US20230127944A1, “BROAD-SPECTRUM CARBAPENEMS” (priority 2019, published 2023)
